The values below come from patent US20030044861A1, “Method for diagnosing neoplasia” (priority 1998, published 2003).

Structures are written as SMILES. Read-outs that look alike come from different tables or passages of the source.

As a reminder, the IC50 is the point on the concentration scale where inhibition reaches its midpoint. Low readings indicate higher potency, high ones lower potency. In general, Kd refers to the free concentration of one partner at which half of the binding sites on the other are occupied at equilibrium, for simple one-to-one binding. Usually Km stands for the concentration of substrate that gives half-maximal velocity.

One assay has as its system A-427, Lung. The assay is described as follows: Growth inhibition of A-427 cells. The class given is cell-based. The following applies: Homo sapiens. Here is the method: (§1) Briefly, suspected neoplastic tissue samples are removed from a patient and grown as explants in vitro. The tissue samples are grown in the presence and absence of a cGMP-specific PDE inhibitor. After being grown in culture, cells are fixed by the addition of cold trichloroacetic acid. Protein levels are measured using the sulforhodamine B (SRB) colorimetric protein stain assay as previously described by Skehan, P., Storeng, R., Scudiero, D., Monks, A., McMahon, J., Vistica, D., Warren, J. T., Bokesch, H., Kenney, S., and Boyd, M. R., “New Colorimetric Assay For Anticancer-Drug Screening,” J. Natl. Cancer Inst. 82: 1107-1112, 1990, which is incorporated herein by reference.
(§2) To show the effectiveness of cGMP-specific PDE inhibition on various forms of neoplasia, (and, therefore, the usefulness of the diagnostic methods of this invention) cGMP-specific PDE inhibitors were tested on a number of neoplastic cell lines. […] Exisulind is defined as (Z)-5-fluoro-2-methyl-1-[[4-(methylsulfonyl)phenyl]methylene]indene-3-yl acetic acid or a salt thereof. The IC50 values were determined by the SRB assay.

Assay [1] relates to PDE peak B (novel cGMP-specific PDE) from SW-480 cells. The experiment in a line: cGMP hydrolysis by PDE peak B. The assay is classed as biochemical, human. To be noted: for Km: peak B.
In the next assay the test system is neoplastic cells. The experiment in a line: Apoptosis induction and growth inhibition in neoplastic cells (words only). The assay is classed as cell-based.
For another assay, the system named is HT-29 cells. The experiment in a line: Apoptosis and necrosis by morphology (acridine orange/ethidium bromide). The assay is classed as cell-based. To be noted: HT-29 cells treated for six days. How it is done:
In one type of apoptosis assay, suspected neoplastic cells are removed from a patient. The cells are then grown in culture in the presence or absence of a cGMP-specific PDE inhibitor. Apoptotic cells are measured by combining both the attached and “floating” compartments of the cultures. The protocol for treating tumor cell cultures with PDE inhibitors and related compounds to obtain a significant amount of apoptosis has been described in the literature. (See, Piazza, G. A., et al., Cancer Research, 55:3110-16, 1995, which is incorporated herein by reference). The novel features of this assay include collecting both floating and attached cells, identification of the optimal treatment times and dose range for observing apoptosis, and identification of optimal cell culture conditions.
Following treatment of neoplastic and normal cells with a test compound, cultures can be assayed for apoptosis and necrosis by fluorescent microscopy following labeling with acridine orange and ethidium bromide. The method for measuring apoptotic cell number has previously been described by Duke & Cohen, “Morphological And Biochemical Assays Of Apoptosis,” Current Protocols In Immunology, Coligan et al., eds. 3.17.1-3.17.16 (1992, which is incorporated herein by reference).
For example, floating and attached cells are collected, and aliquots of cells are centrifuged. The cell pellet is then resuspended in media and a dye mixture containing acridine orange and ethidium bromide. The mixture is then examined microscopically for morphological features of apoptosis.
Apoptotic and necrotic cell death was determined as previously described (Duke and Cohen, In: Current Protocols in Immunology, 3.17.1-3.17.16, New York, John Wiley and Sons, 1992). […] All data were collected from the same experiment.
The diagnostic method of this invention is used to determine whether a particular neoplasia is sensitive to treatment with a cGMP-specific PDE inhibitor. The apoptosis inducing activity for a series of phosphodiesterase inhibitors, specific for different PDEs, was determined. HT-29 cells were treated for 6 days with various inhibitors of phosphodiesterase. Apoptosis and necrosis were determined morphologically after acridine orange and ethidium bromide labeling in accordance with the assay described, supra.

The target of assay [2] is T1, PDE peak A (PDE5) from SW-480 cells (Homo sapiens, UniProt O76074).
T1 construct: SW-480 cells are collected and homogenized; The homogenate is centrifuged, and the supernatant is loaded onto a DEAE-Trisacryl M column; endogenous in cells; host or cells: SW-480 human colon carcinoma cells, DEAE-Trisacryl M fraction peak A
The experiment in a line: cGMP hydrolysis by PDE peak A. The assay is classed as biochemical.

The next assay concerns HCT116, Colon. The assay is described as follows: Growth inhibition of HCT116 cells. The following applies: Homo sapiens, HCT-116. The assay is classed as cell-based. How it is done: as §1, §2
Another assay addresses PDE5 cGMP-binding sites (Bos taurus, UniProt Q28156). The following applies: bovine PDE5; read-out: Kd of high affinity binding site; cited from earlier work.
Assay [3] deals with T2, GST-PDE5 binding domain fusion protein (Homo sapiens, UniProt O76074).
T2 construct: made in house; host or cells: E. coli BL21
The assay is described as follows: Cyclic GMP binding assay, 3H-cGMP saturation binding. The following applies: read-out: Km for cGMP; 3H-cGMP saturation binding curve at 25° C. Here is the method:
The assay was performed in a total volume of 100 μL containing 5 mM sodium phosphate buffer (pH 6.8), 1 mM EDTA and 0.25 mg/ml BSA and H^3-cGMP (5.8 Ci/mmol, NEN). The purified soluble GST-PDE5 binding domain fusion protein (5 to 50 μg/assay) was incubated at […] for one hour and then transferred to a Brandel MB-24 Cell Harvester with GF/B as the filter membrane. Next the fusion protein was washed twice with 10 mL of cold 5 mM potassium buffer, pH 6.8. The membranes were cut out and transferred to scintillation vials, then 1 ml of H2O and 6 ml of Ready Safe liquid scintillation cocktail as added and the samples were counted on a Beckman LS 6500 scintillation counter. A ^3H-cGMP saturation binding curve at 25° C. was generated.

`CSc1ccc(/C=C2/C(C)=C(CC(=O)O)c3cc(F)ccc32)cc1` [Sulindac sulfide] showed an IC50 in the assay on A-427, Lung of 90 µM. Further, the “Mode of inhibition of cGMP hydrolysis, peak B” value in assay [1] is on record as “competitively inhibit”. In the assay with neoplastic cells, the “Apoptosis induction in neoplastic cells (in words)” value is reported as “induce apoptosis in neoplastic cells” and the “Growth inhibition of neoplastic cells (in words)” value is “precisely the opposite”. Also, the “Apoptotic and necrotic cell death (FIG. 1, in words)” value in the assay on HT-29 cells is “capable of causing apoptotic cell death without inducing neoplastic cell necrosis”. The “Mode of inhibition of cGMP hydrolysis, peak A” value in assay [2] was “competitively inhibit”. Moreover, the IC50 in the assay on HCT116, Colon is 45 µM.

As for `Nc1nc2c(ncn2[C@@H]2O[C@@H]3COP(=O)(O)O[C@H]3[C@H]2O)c(=O)[nH]1` [cGMP], the equilibrium dissociation constant (Kd) on PDE5 cGMP-binding sites was 0.5 µM. In addition, the Km in assay [3] was 0.41 ± 0.08 µM; in assay [1] (decreasing slope of Eadie-Hofstee plot, absence of cAMP, read-out: apparent Km), 8.4 µM; in assay [1] (increasing slope of Eadie-Hofstee plot, called submicromolar affinity, read-out: Km), less than 1 µM; in assay [2] (read-out: Km of the enzyme for cGMP, peak A), 1.07 µM.
